Legend:
[1] = test system: agrin mRNA; test: RT-PCR of agrin gene expression (C-terminal primers) in L3-5 spinal cord; format: in vivo, rat
Description: Gene expression alterations after the nerve injury: Gene expression for amino(“N”)- and carboxy(“C”)-terminal halves of agrin was analyzed from L3-5 spinal cord of the rats (sacrificed at 2 hr, 24 hr, 3 days, and 7 days post surgery), using RT-PCR and real-time PCR. The differences in gene expression between sham-operated and nerve-injured groups were compared.
Total RNA extraction: The rats were deeply anesthetized with isoflurane and decapitated. The spinal cord from L3-5 was quickly removed and immediately put into a tube containing TRIzol® (2 ml, Invitrogen, Carlsbad, Calif.). The tissue was homogenized with IKA® T8 homogenizer (IKA®, Staufen, Germany) for 2 min, allowed to stand at room temperature for 3 min, and 0.4 ml chloroform added. The tube was vortexed and centrifuged at 12,000×g for 15 min. The water phase was transferred to a clean tube without any contamination from other phases. Then 1 ml isopropanol was added to the water phase, and the mixture allowed to stand for 10 min at room temperature. The tube was centrifuged for 10 min at 12,000×g. The supernatant was discarded, and the pellet washed with 1 ml 70% ethanol. The ethanol was discarded, and the RNA was re-dissolved in 30 μl nucleotide-free water. A 1 μl aliquot was taken and reserved to dilute 20-fold for RNA quality control. […]
[…]. Changes in agrin gene induced by the injected drug was analyzed and compared.

[2] = test system: thermal hyperalgesia in allodynic rats; test: Thermal hyperalgesia test (paw withdrawal latency) in CCI (Bennett) rats; format: in vivo, rat
[3] = test system: nociceptive pain; details: cited from earlier work
[4] = test system: rodents; details: orally to rodents, 3.7 mmol/kg to 36 mmol/kg; cited from earlier work
[5] = test system: cultured human hepatocytes; details: 100 μM; cited from earlier work
[6] = test system: tactile allodynia in allodynic rats; test: Tactile allodynia test (von Frey filaments, paw withdrawal threshold) in CCI (Bennett model) rats; format: in vivo, rat; details: for effect on tactile allodynia: day 7 after injury
[7] = test system: Bennett model rats with hyperalgesia and allodynia; details: intrathecally, 30 nmol/kg; cited from earlier work
[8] = Solubility for intrathecal injection; format: physicochemical
Description: The maximum volume injected at any one time was 10 μl.^[79]

O=C(CN1C(=O)c2ccccc2S1(=O)=O)Nc1ccc(O)cc1 [SCP-1]
agrin mRNA ([1]; allodynic rats, intrathecal injection 7 days post injury, one- and two-hour post injection): increased
agrin mRNA ([1]; pre-emptive intrathecal injection prior to CCI, 3 and 7 days post-injury): did not show a decrease in agrin mRNA
increase in paw-withdrawal latency (thermal hyperalgesia) ([2]; intrathecal 100 nmol in 10 μl, CCI (Bennett) rat model): 80%
effect on paw-withdrawal latency at 120 min post injection ([2]; intrathecal 100 nmol, 120 min): still apparent
effect on nociceptive pain ([3]; formalin- and CFA-induced, rodent models, without any toxicity): suppressed formalin- and CFA-induced nociceptive pain
acute liver or kidney toxicity ([3]; while relieving nociceptive pain): without acute liver or kidney toxicity
toxicity after oral dosing [4]: the animals were still moving normally
apoptosis [5]: did not induce apoptosis
duration of suppressive effect ([6]; Example 9: SCP-1 alone): at least 4 hr
effect on tactile allodynia ([6]; intrathecal 1 nmol): did not affect tactile allodynia
effect on tactile allodynia ([6]; intrathecal 10 nmol): did not affect tactile allodynia
effect on tactile allodynia ([6]; intrathecal 50 nmol): only a mild effect
withdrawal threshold at 2 hr post-injection ([6]; intrathecal 100 nmol): 27.3 ± 2.5 g
withdrawal threshold at 90 min after injection ([6]; intrathecal 100 nmol, basal threshold 4.6±1.1 g): 28 ± 2.4 g
effect on tactile allodynia ([6]; intrathecal 200 nmol): suppressed the tactile allodynia
effect on tactile allodynia (paw withdrawal threshold) ([6]; pre-emptive intrathecal 100 nmol in 10 μl saline immediately prior to CCI, 0, 3, 7 days): prevented
duration of prevention of tactile allodynia ([6]; pre-emptive intrathecal 100 nmol prior to CCI): up to 7 days
effect on paw withdrawal threshold at 7 days ([6]; pre-emptive intrathecal 100 nmol prior to CCI, 7 days after injury): remained strong
effect on allodynia and hyperalgesia [7]: depressed the signs of allodynia and hyperalgesia
solubility in 45% 2-hydroxypropyl-α-cyclodextrin in saline ([8]; 45% cyclodextrin in saline, 10 mM solutions prepared): can dissolve them
solubility in water ([8]; water): do not dissolve readily in water

Reference: patent US20100004171A1, “Therapeutic Methods for Neuropathic Pain” (priority 2006, published 2010)
